Where a name gives a salt, the structure may show the parent alone.
Each compound was assayed on MT4 (assay: Inhibition of cell culture in MT-4 cells). Conditions: Homo sapiens, read-out: CIC95.
Type: functional
With `NC(=O)c1[nH]c2ccc(Cl)cc2c1[S+]([O-])c1ccccc1` (stereo not given) the IC95 was 200 nM. With `CNC(=O)c1[nH]c2ccc(Cl)cc2c1Sc1ccccc1` the IC95 was 200 nM. Work on `CN(C)C(=O)c1[nH]c2ccccc2c1Sc1ccccc1` yielded an IC95 of over 3000 nM. With `[O-][S+](Cc1[nH]c2ccccc2c1[S+]([O-])c1ccccc1)c1ccccc1` (stereo not given) the IC95 was over 3000 nM. With `COC(=O)c1[nH]c2ccc(Cl)cc2c1Sc1ccccc1` the IC95 was 1500 nM. `[O-][S+](Cc1[nH]c2ccccc2c1Sc1ccccc1)c1ccccc1` (stereo not given) showed an IC95 of 400 nM. With `[O-][S+](Cc1[nH]c2ccc(Cl)cc2c1Sc1ccccc1)c1ccccc1` (stereo not given) the IC95 was 800 nM. For `CNC(=O)c1[nH]c2ccccc2c1Sc1ccccc1`, the IC95 was 800 nM. `COC(=O)c1[nH]c2ccccc2c1Sc1ccccc1` gave an IC95 of over 3000 nM. Compound `NC(=O)c1[nH]c2ccc(Cl)cc2c1Sc1ccccc1` has an IC95 of 200 nM. `CC(C)=CCN1Cc2cc(Cl)cc3[nH]c(=S)n(c23)C[C@@H]1C` gave an IC95 of 400 nM. Work on `CCNc1cccnc1N1CCN(C(=O)c2cc3cc(OC)ccc3[nH]2)CC1` [ATEVIRDINE MESYLATE] yielded an IC95 of 3000 nM. `CCc1cc(NCc2nc3c(Cl)ccc(Cl)c3o2)c(O)nc1C` [L-697661] showed an IC95 of 50 nM. `NC(=O)c1[nH]c2ccc(Cl)cc2c1S(=O)(=O)c1ccccc1` [L-737126] gave an IC95 of 3 nM. `Cc1ccnc2c1NC(=O)c1cccnc1N2C1CC1` [NEVIRAPINE] was tested, and the IC95 was 400 nM.
